Reference: PMC8944987, “In Vivo Efficacy of SQ109 against Leishmania donovani, Trypanosoma spp. and Toxoplasma gondii and In Vitro Activity of SQ109 Metabolites” (Biomedicines, 2022)
“And” between values parts separate entries of the source, which are not always exact repeats. Equal entries are not always repeated. “Also recorded” adds a separate entry of the source.

Columns and labels:
[1] = tested on: THP-1 human monocyte cell line; test: Host cell toxicity in the L. donovani amastigote assay; type: cell-based; details: 3 days of compound incubation; Figure 2F
Procedure: The THP-1 human monocyte cell line was grown in RPMI-1640 medium (Welgene, Gyeongsangbuk-do, Republic of Korea) supplemented with 10% FBS and 1% P/S. For differentiation, THP-1 cells were treated for 3 days with 50 ng/mL of PMA [20]. […] An image analysis was performed as described in the T. cruzi assay (Figure S2).

[2] = tested on: L. donovani intracellular amastigotes; set-up: method as in PMID 31897791; details: J774 macrophages as host cells; cited from earlier work
T. cruzi Dm28c = test: T. cruzi acute in vivo mouse model; set-up: species or system BALB/c mice
Source text: BALB/c mice were infected with TCT of T. cruzi Dm28c (10^7 cells) by i.p. injection. Five days post-infection, infected mice were sacrificed to collect BSF of T. cruzi. BALB/c mice were intraperitoneally infected with BSF of T. cruzi Dm28c (5 × 10^4 cells). Five days post-infection, BALB/c mice were infected with previously collected 2nd-round BSF cells (3 × 10^4 cells). Mice were divided into groups (n = 10) and treated orally with drugs for 5 consecutive days for 2 weeks by starting from day 2 post-infection administration of DPBS, 100 mg/kg of benznidazole, or 100 mg/kg of SQ109 via p.o. route, respectively. Parasitemia was evaluated every 2 days for 5 weeks by blood collection from the mouse tail vein, and survival was monitored for 2 months. Mice showing impaired health status were euthanized.

[3] = tested on: intracellular L. donovani amastigotes in THP-1; test: L. donovani intracellular amastigotes assay in THP-1 (image based); type: cell-based
T. b. brucei Lister 427 = test: T. brucei acute in vivo mouse model; set-up: species or system BALB/c mice
L. donovani amastigotes = test: L. donovani (VL) in vivo mouse model, liver LDU; set-up: species or system BALB/c mice; details: for parasite burden in liver (LDU): 5 days of treatment; for reduction of parasite burden: versus vehicle-treated group
Procedure: BALB/c mice (n = 5) were injected with 2 × 10^7 hamster spleen-derived L. donovani amastigotes via the retro-orbital venous sinus route. From day 7 post-infection, groups of mice were treated using the drug vehicle only, miltefosine (30 mg/kg), or SQ109 (30, 50, 100 mg/kg). On day 16 post-infection, all animals were humanely euthanized and assessed microscopically using Giemsa-stained liver imprints. […] The LDU values for the drug-treated samples were compared to those of the untreated samples.

[4] = tested on: Plasmodium falciparum mature gametocytes (stage IV/V); set-up: method as in PMID 33431834; details: cited from earlier work
T. cruzi trypomastigotes = tested on: T. cruzi trypomastigotes; set-up: method as in PMID 25583723; details: cited from earlier work
T. gondii tachyzoites = test: In vitro activity assay for T. gondii (td-tomato tachyzoites in hTert fibroblasts); type: cell-based; details: Toxoplasma gondii, Fibroblast; human fibroblasts (hTert), fluorescence 3 to 4 days; Figure 6A; read-out: IC50, T. gondii cell growth inhibition (intracellular tachyzoite assay)
Procedure: We used a parasite strain expressing red fluorescent protein (td-tomato) for in vitro drug testing. Tachyzoites were maintained in human fibroblasts (hTert cells). Human fibroblasts were cultured in 96-well plates for 24 h prior to the addition of 4000 fluorescent tachyzoites/well. Fluorescence values were measured for 3 to 4 days, and both excitation (544 nm) and emission (590 nm) were read from the bottom of the plates in a Molecular Devices (Molecular Devices, LLC, CA, USA) plate reader.

[5] = Reported tissue (liver) accumulation on repeated oral dosing; type: in vivo; details: assuming the same volume-to-mass ratio, 28-day oral dosing, 10 mg/kg, from ref 30, read-out: SQ109 liver concentration
[6] = tested on: T. b. brucei Lister strain 427 bloodstream form (BSF); test: In vitro activity assay for T. brucei (resazurin growth inhibition); type: cell-based; details: Trypanosoma brucei
[7] = Adverse effects observed during the in vivo experiments; set-up: species or system mice; details: tested doses (20 to 100 mg/kg)
[8] = tested on: L. mexicana intracellular amastigotes; set-up: method as in PMID 27458218; details: cited from earlier work
[9] = Reported plasma protein binding; type: in vitro ADME, mice; details: from the reported plasma protein binding
[10] = tested on: L. donovani promastigotes; test: L. donovani promastigotes assay (resazurin); type: cell-based; details: Leishmania donovani
[11] = tested on: intracellular T. cruzi Dm28c amastigotes in U2OS; test: T. cruzi intracellular amastigotes assay in U2OS (image based); type: cell-based; details: Trypanosoma cruzi
Procedure: U2OS human osteosarcoma cells were maintained in DMEM supplemented with high glucose, 10% FBS, and 1% P/S at 37 °C with 5% CO2 in air. […] Cell images were acquired by an automated image analyzer (Operetta, Perkin Elmer Technology, Waltham, MA, USA); analysis included at least 1000 cells in five fields per well. For the imaging of infected cells and parasites, Draq-5 was observed under a 20× air objective. An image analysis algorithm (Columbus, Perkin Elmer Technology) was used to detect the Draq-5 signal in the nuclei of cells and parasites as described in a previous article and shown in Supplementary Figure S1 [20]. The number of parasites was defined by the value of the number of parasites in infected cells of the acquired image.

[12] = tested on: L. mexicana promastigotes; set-up: method as in PMID 27458218; details: cited from earlier work
[13] = tested on: T. gondii tachyzoites of the RH strain; test: T. gondii in vivo mouse model; set-up: species or system Webster mice; details: for survival of T. gondii infected mice: 20 and 50 mg/kg daily for 10 days
[14] = cited from earlier work
[15] = set-up: method as in PMID 16432511; details: in mice; cited from earlier work
[16] = 100 mg/kg oral gavage, q.d. for 2 weeks

CC(C)=CCC/C(C)=C/CNCCNC1C2CC3CC(C2)CC1C3 (centres unmarked) [SQ109, N-adamantan-2-yl-N’-((E)-3,7-dimethyl-octa-2,6-dienyl)-ethane-1,2-diamine]
host cell (THP-1) toxicity: concentration up to which none was observed [1]: > 10 µM
IC50 [2]: 7.17 nM and 7.2 nM
delay of the peak of parasitemia compared to the vehicle control (T. cruzi Dm28c; [16]): 4 days
peak of parasitemia (T. cruzi Dm28c; [16]): 18 days post-infection
parasite reduction at the peak of parasitemia of the vehicle group (T. cruzi Dm28c; 100 mg/kg oral gavage, q.d. for 2 weeks, 14 days post-infection): 46.1%
survival of T. cruzi infected mice (T. cruzi Dm28c; 100 mg/kg p.o., 40 days post-infection): 80%
anti-amastigote activity in the current study less than the reported one ([3]; L. donovani, THP-1 (this study) versus J774 (ref 10)): ~ 200 fold
IC50 ([3]; Leishmania donovani, 72 h, differentiated THP-1 host cells, 3 days of compound incubation, Figure 2F): 1380 nM
extended survival compared to the vehicle control (T. b. brucei Lister 427; 30 mg/kg, q.d. for 5 days, p.o.): 3.4 days
average day of survival (T. b. brucei Lister 427; 30 mg/kg, q.d. for 5 days, p.o., T. brucei infected BALB/c mice): 8.6 days
average days of extended survival compared to the vehicle control (T. b. brucei Lister 427; 100 mg/kg, q.d. for 5 days, p.o.): 3.6 days
parasitemia in blood, in words (T. b. brucei Lister 427; 30 or 100 mg/kg p.o. for 5 days, Figure 3B): parasitemia rapidly increased after the termination of SQ109 administration; also recorded: not able to completely clear the parasites in the bloodstream
parasite burden in liver (LDU) (L. donovani amastigotes; 30 mg/kg): 1060 ± 110 LDU
parasite burden in liver (LDU) (L. donovani amastigotes; 50 mg/kg): 772 ± 89 LDU
reduction of parasite burden (L. donovani amastigotes; 50 mg/kg): 31.8%
parasite burden in liver (LDU) (L. donovani amastigotes; 100 mg/kg): 737 ± 145 LDU
reduction of parasite burden (L. donovani amastigotes; 100 mg/kg): 34.9%
IC50 [4]: 105 nM
IC50 (T. cruzi trypomastigotes): 50 nM
IC50 (T. gondii tachyzoites): 1820 nM
concentration at 28 days [5]: ~6 µM
EC50 ([6]; bloodstream forms, read-out: T. brucei BSF EC50 (converted)): 810 nM
IC50 ([6]; 3 days (72 h) of compound incubation, Figure 2A, read-out: IC50, T. brucei trypomastigote viability): 320 nM
adverse effects throughout the in vivo experiments [7]: did not observe any adverse effects
IC50 [8]: ~11 nM
free-drug fraction expected in mice plasma [9]: ~ 90%
EC50 ([10]; promastigotes, read-out: L. donovani EC50 (PRO)): 280 nM
IC50 ([10]; 72 h, Figure 2E, read-out: IC50, L. donovani promastigote growth): 175 nM
IC50 ([11]; 72 h, U2OS host cells, 3 days of compound incubation, Figure 2D, read-out: IC50, intracellular T. cruzi amastigote survival): 610 nM
EC50 ([11]; amastigotes in U2OS, read-out: T. cruzi Dm28c EC50 (AMA)): 1100 nM
IC50 [12]: ~500 nM
survival / protection of T. gondii infected mice against the initial infection ([13]; hypervirulent RH strain, 50 mg/kg i.p.): Eighty percent
survival of T. gondii infected mice ([13]; i.p., Figure 6B): 50–80%
survival of T. gondii infected mice ([13]; oral gavage, 40 days post-infection, Figure 6C): 30–40%
animals surviving the re-challenge at day 42 ([13]; treated with 20 mg/kg/day): 4 out of 6
outcome of the re-challenge at 42 days, in words ([13]; treated with 50 mg/kg/day): all died with the challenge
maximum tolerated dose (MTD) [14]: 600 mg/kg
plasma protein binding [15]: 5.8–8.5%
